In experiment [1] the target is T1, human Smo (amino acids 181-787) (Homo sapiens, UniProt Q99835).
T1 construct: expressed in transfected cells; membrane preparation
In words: Smo radioligand competition binding assay (displacement of 3H-PF-03451358 from HEK293 membranes). The following applies: for inhibition at 0.05 µM: 0.05 μM test compound, displacement of 3H-PF-03451358, read-out: SMO % inh. @ 0.05 μM; for IC50: radioligand competition binding. The procedure: Membranes were prepared from a stable cell line created in HEK293FlpIn-TetR cells (Invitrogen) using FIp recombinase-mediated insertion of the pSecTag-FRT/V5-His vector containing a cDNA encoding amino acids 181-787 of human Smo fused to the murine lgk leader sequence to produce a cell surface expressed Smo 181-781 protein. Hygromycin-resistant clones were obtained and stained for LacZ expression (no expression indicates a correct knock-in of my fusion cDNA). LacZ-negative cells were analyzed for binding tritiated Smo antagonist PF-03451358. For membrane preparation, the HEK293 cells expressing Smo 181-781 were grown to 90% confluence in nine to fifteen 245 mm×245 mm×22 mm dishes, washed with Dulbecco's PBS (15 ml per dish) and harvested via scraping in 10 ml of DPBS. The cells were collected and centrifuged at 1500 rpm (400×g) for 10 min at 4° C. The cell pellets were re-suspended in 40 ml of cold DPBS and washed by centrifugation at 2300 rpm (950×g max) for 10 minutes at 4° C. The supernatant was aspirated and the cell pellet was snap frozen in a methanol/dry ice bath and stored at −70° C. For membrane preparation, 15 ml of Membrane Preparation Buffer (50 mM Tris-HCl pH 7.5, 250 mM sucrose with Roche complete protease cocktail tablets) is added to the tube containing the cell pellet, then cells are rapidly thawed, and homogenized using an Ultra-Turrax T8 (IKA Labortechnik) set on “6” for 15 seconds for 5-6 times in icy water bath. This homogenate was diluted up to 50 ml using Membrane Preparation Buffer and centrifuged at 35,000 rpm in a Beckman Ti45 rotor (140,000×g) for 35 minutes at 4° C. followed by aspiration of the supernatant and re-suspension of the pellet in 5 ml of Assay Buffer (50 mM Tris-HCl pH 7.5, 100 mM NaCl, 25 mM MgCl2, 1 mM EDTA, and 0.1% protease free bovine serum albumin). The re-suspended pellet is then homogenized in a glass tissue grinder. The re-suspended membranes are aliquoted (0.5 ml aliquots), snap frozen and stored at −70° C. Total protein in the membrane preparation is determined using the Pierce BCA protein assay (Pierce Chemical).
For the binding competition assay, 100 μl of Assay Buffer is added to all the wells of a 96 well GF/B filter plate (Millipore MultiScreen-HTS-FB cat# MSFBN6B50) for 10 minutes to pre-wet the filter prior to evacuation of the buffer (8 inches Hg for 8 seconds). To the pre-wet wells is added: 20 μl of Assay Buffer, 10 μl diluted test agent, 20 μl of ^3H-PF-3451358 (15 nM stock solution), and 50 μl of membrane preparation (40 μg total protein per well). The plates are sealed and mixed at room temperature for 5 min, incubated at room temperature for 2 hours, then washed 5 times with 100 μl/each of wash buffer and vacuum dried for 8 seconds at 8 inch Hg. The plate is then dried for one hour in a 60° C. oven prior to the addition of 45 μl of Microscint 20 (Packard, #6013621) to each well and incubation at RT for 30 minutes to 1 hour. The plate is counted in a TopCount scintillation counter (Perkin Elmer).
Data analysis uses Excel for % Inhibition and Graphpad Prism for IC50 calculation. Total binding (TB, in the absence of inhibitors)=average of ^3H PF-03451358 3 nM+SMO membrane (40 μg/wells (approx 5000-7000 CPM). Non-specific binding (NSB)=average of ^3H PF-03451358 (3 nM)+cold PF-03451358 (30 μM)+SMO membrane (approx 600-1200 CPM). Specific binding (SB)=(total binding−non-specific binding). % Inhibition=[1−(compound Specific binding/control Specific binding)]×100%. IC50 is calculated by fitting the data to the four parameter sigmoidal dose-response curve (variable slope) Y=Bottom+(Top-Bottom)/(1+10̂((LogEC50−X)*HillSlope)). X is the logarithm of the inhibitor concentration. Y is the response; Y starts at Bottom and goes to Top with a sigmoid shape.

Experiment [2] relates to Gli-Luc/MEF cells (Smo). The experiment is described as follows: Gli-Luc/MEF assay (Shh-stimulated luciferase reporter under the Gli response element). The experiment is classed as cell-based, mouse. The note with it: Mus musculus, MEF, 48 h. As for the experimental part:
The Gli-Luc/MEF cells obtained from Gli-Luc transgenic mice (Pfizer CoE, Genetically Modified Mice) contain a luciferase reporter gene under the control of the Gli response element. Luciferase activity stimulated with Sonic hedgehog ligand was inhibited by Smo inhibitors, and IC50 was subsequently calculated.
Plates were incubated at 37° C. and 5% CO2 overnight. On day two, cells were dosed with test compounds at a final concentration ranging from […] to 50 μM at a 3-time series dilution. Immediately after dosing cells with compounds, recombinant mouse sonic hedgehog (Shh, R&D Systems 464-SH) was added to a final concentration of 2 μg/mL. The cells were incubated with compounds and Shh for 48 hours at 37° C. and 5% CO2. Luciferase assays were conducted on Day 4 using the Bright-Glo Luciferase assay system (Promega E2620) according to Promega's protocol. Briefly, Bright-Glo luciferase reagent was made up and 25 uL were added to each well of the 384-well plate containing media. Plates were kept at room temperature for 5 minutes, and then read on an Envision Luminescence plate reader (Perkin-Elmer). IC50 of the inhibition was calculated by using GraphPad Prism.

For orientation: IC50 means the midpoint of a concentration-inhibition curve.

T1 sequence (Q99835 181-787): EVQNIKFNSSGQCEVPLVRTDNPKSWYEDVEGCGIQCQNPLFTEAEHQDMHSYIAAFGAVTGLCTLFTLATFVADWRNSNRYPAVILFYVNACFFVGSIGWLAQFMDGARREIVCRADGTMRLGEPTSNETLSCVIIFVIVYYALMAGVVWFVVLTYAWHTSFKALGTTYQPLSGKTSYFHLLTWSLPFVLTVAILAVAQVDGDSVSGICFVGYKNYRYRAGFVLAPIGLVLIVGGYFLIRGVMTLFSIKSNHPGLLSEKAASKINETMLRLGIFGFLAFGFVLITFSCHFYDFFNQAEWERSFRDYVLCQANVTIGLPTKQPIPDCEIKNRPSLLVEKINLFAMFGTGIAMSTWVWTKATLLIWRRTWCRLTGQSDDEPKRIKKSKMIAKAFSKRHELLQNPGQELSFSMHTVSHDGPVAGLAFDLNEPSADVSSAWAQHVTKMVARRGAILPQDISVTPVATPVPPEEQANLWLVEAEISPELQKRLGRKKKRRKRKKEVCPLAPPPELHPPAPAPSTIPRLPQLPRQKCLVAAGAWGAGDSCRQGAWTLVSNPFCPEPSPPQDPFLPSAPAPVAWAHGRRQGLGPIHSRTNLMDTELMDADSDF

With `Cn1c(-c2ccnc(N3CCC(N4CCOC4=O)CC3)c2)nc2ccccc21` [Example A-15, 3-{1-[4-(1-methyl-1H-benzimidazol-2-yl)pyridin-2-yl]piperidin-4-yl}-1,3-oxazolidin-2-one], the inhibition at 0.05 µM in experiment [1] came to 53%. The values for the half-inhibitory concentration (IC50) in experiment [1] and in experiment [2] were 0.404 µM and 0.18 µM, respectively.
The like results for `CC(=O)NC1CCN(c2cc(-c3nc4ccccc4n3C)ccn2)CC1` [Example A-16, N-{1-[4-(1-methyl-1H-benzimidazol-2-yl)pyridin-2-yl]piperidin-4-yl}acetamide] were, in that order, 81%, 0.102 µM and 0.065 µM.
The matching figures for `Cn1c(-c2ccnc(N3CCC(NS(C)(=O)=O)CC3)c2)nc2ccccc21` [Example A-17, N-{1-[4-(1-methyl-1H-benzimidazol-2-yl)pyridin-2-yl]piperidin-4-yl}methanesulfonamide]: 99%, 0.013 µM and 0.006 µM.
The like results for `Cn1c(-c2ccnc(N3CCC(O)CC3)c2)nc2ccccc21` [Example A-18, 1-[4-(1-methyl-1H-benzimidazol-2-yl)pyridin-2-yl]piperidin-4-ol] were, in that order, 79%, 0.075 µM and 0.115 µM.
As to `COC(=O)NC1CCN(c2cc(-c3nc4ccccc4n3C)ccn2)CC1` [Example A-19, methyl {1-[4-(1-methyl-1H-benzimidazol-2-yl)pyridin-2-yl]piperidin-4-yl}carbamate], in experiment [1], the inhibition at 0.05 µM amounted to 84% and the IC50 is 0.025 µM. The molecule also gave an IC50 in experiment [2] of 0.015 µM.
As for `Cn1c(-c2cc(N3CCC(S(C)(=O)=O)CC3)ncc2Cl)nc2ccccc21` [Example A-20, 2-{5-chloro-2-[4-(methylsulfonyl)piperidin-1-yl]pyridin-4-yl}-1-methyl-1H-benzimidazole], in experiment [1], the inhibition at 0.05 µM came out at 87% and the IC50 came out at 0.019 µM. Besides, in experiment [2], 0.008 µM corresponded to half-maximal inhibition (IC50).
The matching figures for `Cn1c(-c2ccnc(N3CCN(S(C)(=O)=O)CC3)c2)nc2ccccc21` [Example A-21, 1-methyl-2-{2-[4-(methylsulfonyl)piperazin-1-yl]pyridin-4-yl}-1H-benzimidazole]: 78%, 0.152 µM and 0.09 µM.
The matching figures for `CC(=O)NC1CCN(c2cc(-c3nc4ccccc4n3C)c(Cl)cn2)CC1` [Example A-22, N-{1-[5-chloro-4-(1-methyl-1H-benzimidazol-2-yl)pyridin-2-yl]piperidin-4-yl}acetamide]: 94%, 0.011 µM and 0.006 µM.
The like results for `Cn1c(-c2cc(N3CCNCC3)ncc2Cl)nc2ccccc21` [Example A-23, 2-(5-chloro-2-piperazin-1-ylpyridin-4-yl)-1-methyl-1H-benzimidazole] were, in that order, 88%, 0.056 µM and 0.031 µM.
`Cn1c(-c2cc(N3CCC(S(C)(=O)=O)C3)ncc2Cl)nc2ccccc21` (stereo not drawn) [Example A-24, 2-{5-chloro-2-[3-(methylsulfonyl)pyrrolidin-1-yl]pyridin-4-yl}-1-methyl-1H-benzimidazole]: in experiment [1], the inhibition at 0.05 µM came to 82% and the IC50 amounted to 0.054 µM. Besides, in experiment [2], inhibition was half-maximal at 0.02 µM (IC50).
The like results for `Cn1c(-c2cc(N3CCC(O)CC3)ncc2Cl)nc2ccccc21` [Example A-25, 1-[5-chloro-4-(1-methyl-1H-benzimidazol-2-yl)pyridin-2-yl]piperidin-4-ol] were, in that order, 91%, 0.008 µM and 0.007 µM.
The like results for `Cn1c(-c2cc(N3CC[C@@H](O)C3)ncc2Cl)nc2ccccc21` [Example A-26, (3R)-1-[5-chloro-4-(1-methyl-1H-benzimidazol-2-yl)pyridin-2-yl]pyrrolidin-3-ol] were, in that order, 64%, 0.166 µM and 0.049 µM.
The matching figures for `CCS(=O)(=O)N1CCN(c2cc(-c3nc4ccccc4n3C)c(Cl)cn2)CC1` [Example A-27, 2-{5-chloro-2-[4-(ethylsulfonyl)piperazin-1-yl]pyridin-4-yl}-1-methyl-1H-benzimidazole]: 93%, 0.049 µM and 0.005 µM.
With `Cn1c(-c2cc(N3CC[C@H](O)C3)ncc2Cl)nc2ccccc21` [Example A-28, (3S)-1-[5-chloro-4-(1-methyl-1H-benzimidazol-2-yl)pyridin-2-yl]pyrrolidin-3-ol], in experiment [1], the inhibition at 0.05 µM amounted to 82% and the concentration for half-maximal inhibition (IC50) is 0.079 µM. In addition, half-maximal inhibition in experiment [2] (IC50) was put at 0.052 µM.
The matching figures for `CC(=O)N1CCN(c2cc(-c3nc4ccccc4n3C)ccn2)CC1` [Example A-29, 2-[2-(4-acetylpiperazin-1-yl)pyridin-4-yl]-1-methyl-1H-benzimidazole]: 78%, 0.061 µM and 0.11 µM.
The like results for `Cn1c(-c2cc(N3CCC(C)(O)CC3)ncc2Cl)nc2ccccc21` [Example A-30, 1-[5-chloro-4-(1-methyl-1H-benzimidazol-2-yl)pyridin-2-yl]-4-methylpiperidin-4-ol] were, in that order, 96%, 0.028 µM and 0.011 µM.
The like results for `Cn1c(-c2ccnc(N3CCNCC3)c2)nc2ccccc21` [Example A-31] were, in that order, 54%, 0.645 µM and 0.128 µM.
In the case of `COC(=O)NC1CCN(c2cc(-c3nc4ccccc4n3C)c(Cl)cn2)CC1` [Example A-32, methyl {1-[5-chloro-4-(1-methyl-1H-benzimidazol-2-yl)pyridin-2-yl]piperidin-4-yl}carbamate], in experiment [1], the inhibition at 0.05 µM is 89% and the half-inhibitory concentration (IC50) was 0.007 µM. The IC50 in experiment [2] turned out to be 0.001 µM.
`Cn1c(-c2cc(N3CCNC(=O)CC3)ncc2Cl)nc2ccccc21` [Example A-33, 1-[5-chloro-4-(1-methyl-1H-benzimidazol-2-yl)pyridin-2-yl]-1,4-diazepan-5-one]: the inhibition at 0.05 µM in experiment [1] was 98%. The 50% inhibitory concentration (IC50) in experiment [1] came out at 0.009 µM; in experiment [2], 0.008 µM.
The matching figures for `Cn1c(-c2cc(N3CCOCC3)ncc2Cl)nc2ccccc21` [Example A-34, 2-(5-chloro-2-morpholin-4-ylpyridin-4-yl)-1-methyl-1H-benzimidazole]: 95%, 0.022 µM and 0.016 µM.
